“Also recorded” adds a separate entry of the source.
Columns and labels:
[1] = tested on: sigma receptors; settings: Bidlack et al., 2000; cited from earlier work
[2] = target: mu opiate receptors (Homo sapiens, UniProt P35372); settings: Bidlack et al., 2000; cited from earlier work
[3] = target: KOR (Homo sapiens, UniProt P41145); settings: Zhu et al., 1997; cited from earlier work
[4] = tested on: human subjects who have been diagnosed with bipolar disorder and are acutely manic; assay: Open-label cumulative-dosing clinical trial of pentazocine in acutely manic subjects; assay type: in vivo; settings: for YMRS mean: morning
Method: A trial study was conducted to determine the effect of pentazocine on the mood of human subjects who have been diagnosed with bipolar disorder and are acutely manic. Ten subjects (7 male and 3 female) between the ages of 18 and 65 were enrolled in the study. All subjects were admitted to the hospital with a primary diagnosis of bipolar mania by DSMIV criteria. […] Subjects with a current history of substance abuse or a recent history of opiate dependence were excluded. All subjects were deemed competent to give informed consent by non-study physicians. After complete description of the study to the subjects, written informed consent was obtained.
The current study was undertaken in full compliance with federal requirements and with institutional review board approval. The study was designed as an open-label cumulative-dosing trial.
The three-day study consisted of pre-treatment, treatment, and post-treatment days with subjects rated in the morning on all three days and multiple times on the day of treatment. On the treatment day, an initial 50 mg of pentazocine was given by mouth. A second dose was given two hours following the initial dose. Pentazocine was given as Talwin Nx (Sanofi-Synthlabo), consisting of 50 mg dose pentazocine with 0.5 mg naloxone (naloxone is added to limit the intra-venous abuse potential of this drug but is not absorbed when given by oral administration as used here).
Assessment of manic symptoms by YMRS were made daily at the same time in the morning on all three days of the study. As the YMRS was designed to reflect the past 48 hours, it is not sensitive to acute symptomatic change (IsHak et al, 2002) YMRS and DSMIV criteria were used as the basis for constructing a scale to detect acute changes in manic symptoms (The Mania Acute Change Scale or MACS). […] The MACS scale is available online at www.mcleanhospital.org. The MACS, which includes items from the YMRS and a brief assessment of dysphoria/depression was given along with the YMRS in the morning on all three days of the study. In addition, the MACS was given hourly for 6 hours starting with the first dose of pentazocine. All investigator ratings were performed by investigator Beth Murphy, M. D., Ph.D. A self-rating scale designed to assess manic symptoms and medication side effects was completed by subjects whenever the MACS was given. Staff reports were reviewed, with special note of the duration of sleep and whether any ‘pro re nata’ (PRN) medications were required. Data were analyzed using a repeated measures ANOVA (SPSS 14.0).

[5] = 50 mg by mouth at Hour 0 and Hour 2, hourly ratings
[6] = one hour after first 50 mg oral dose
[7] = second 50 mg oral dose given at hour 2

Chain of mu opiate receptors (P35372 whole entry): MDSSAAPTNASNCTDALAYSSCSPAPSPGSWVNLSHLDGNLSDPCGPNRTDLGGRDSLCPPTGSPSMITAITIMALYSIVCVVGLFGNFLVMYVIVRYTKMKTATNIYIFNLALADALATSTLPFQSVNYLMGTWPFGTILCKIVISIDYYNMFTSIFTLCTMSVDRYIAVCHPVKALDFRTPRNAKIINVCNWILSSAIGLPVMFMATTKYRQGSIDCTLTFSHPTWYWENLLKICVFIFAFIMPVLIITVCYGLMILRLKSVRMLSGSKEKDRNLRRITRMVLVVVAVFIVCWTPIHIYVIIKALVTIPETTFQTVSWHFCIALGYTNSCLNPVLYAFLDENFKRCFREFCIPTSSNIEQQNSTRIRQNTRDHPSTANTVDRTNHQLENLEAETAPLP
Chain of KOR (P41145 whole entry): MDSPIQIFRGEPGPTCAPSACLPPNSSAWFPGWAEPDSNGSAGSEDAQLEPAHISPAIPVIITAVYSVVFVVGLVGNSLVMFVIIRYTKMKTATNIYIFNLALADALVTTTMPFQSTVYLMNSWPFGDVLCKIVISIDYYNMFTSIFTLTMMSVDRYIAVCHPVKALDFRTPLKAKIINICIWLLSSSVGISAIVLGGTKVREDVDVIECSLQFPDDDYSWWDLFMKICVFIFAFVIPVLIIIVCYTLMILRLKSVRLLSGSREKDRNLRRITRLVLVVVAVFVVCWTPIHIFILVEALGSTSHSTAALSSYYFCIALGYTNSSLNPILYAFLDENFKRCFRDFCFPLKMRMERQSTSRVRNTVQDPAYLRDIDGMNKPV

What does the source list for CC(C)=CCN1CCC2(C)c3cc(O)ccc3CC1C2C (centres unmarked) [pentazocine]?
affinity and effects at sigma receptors relative to KOR [1]: lower affinity and weaker effects; affinity and effects at mu opiate receptors relative to KOR [2]: lower affinity and weaker effects; efficacy at KOR [3]: partial agonist; dysphoria ([4]; 50 mg by mouth at Hour 0 and Hour 2): No dysphoria was reported; also recorded: None of the subjects complained of dysphoria; effect on manic symptoms (total MACS score) [4, 5]: manic symptoms decreased; also recorded: All subjects experienced an improvement in manic symptoms; also recorded: transient but substantial and statistically significant reduction in manic symptoms; effect on psychotic symptoms (clinician rating) [4, 5]: no significant changes in psychosis; also recorded: No subject experienced exacerbation of psychotic symptoms; also recorded: most subjects experienced a mild improvement in psychotic symptoms; sedation (clinician rating, scale of 0-4) [4, 5]: mild (half-point), nonsignificant, increases in sedation; also recorded: Sedation was low; mean total MACS score ([4]; Hour 0 (baseline), before first dose): 20.1; mean total MACS score ([4]; hour 2, when second dose was given): 18.6; mean total MACS score ([4]; hour 3, one hour after second 50 mg oral dose): 11.0; mean change in total manic symptom ratings (MACS) from baseline [4, 6]: −8.8; mean total MACS score [4, 6]: 11.3; mean change in total manic symptom ratings from baseline (decrease) ([4]; one hour after first 50 mg oral dose, MACS, 10 subjects): 44%; rebound in symptoms after treatment ([4]; post-treatment day): no evidence of a rebound in symptoms after treatment; YMRS mean ([4]; post-treatment day): 12.7 ± 8.4; YMRS mean ([4]; pretreatment day): 23.6 ± 8.9; fall in mean MACS score between hour 2 and hour 3 [4, 7]: 7.6 points; fall in mean total manic symptom ratings (MACS) between hour 2 and hour 3 [4, 7]: 41%; YMRS mean ([4]; treatment day): 22.0 ± 6.9; tolerability / side effects ([4]; two 50 mg oral doses two hours apart): well-tolerated; also recorded: No subject experienced significant side effects; also recorded: No adverse effects, including psychotomimetic effects, were observed or reported

— patent publication US7884077B2, “Methods for the treatment of mood disorders” (The McLean Hospital Corporation, priority 2006, dated 2011)
